Data as given in patent US10626100B2, “Selective HDAC6 inhibitors” (The Trustees of Columbia University in the City of New York, priority 2013, dated 2020).
Entries after “also recorded” stand apart in the source; their conditions may differ. One block for each molecule: values may come before it.

What was measured:
HDAC1 = HDAC1 (Homo sapiens, UniProt Q13547); assay: Inhibition of recombinant HDAC1; format: biochemical; conditions: read-out: IC50 (nM) HCAC1
[1] = system: acetylated alpha-tubulin and acetylated histone H3 in LNCaP (human prostate cancer cells); assay: Accumulation of acetylated proteins in LNCaP cells (western blot); format: cell-based; conditions: LNCaP cells, FIG. 2
Description: FIG. 2. Blot showing accumulation of acetylated alpha-tubulin and acetylated histone H3 in LNCaP (human prostate cancer cells) cultured with compounds 8 or 11. GADPH used as loading control.
FIG. 5. Western blots of acetylated alpha-tubulin (Acet-Tub) and acetylated histone H3 (Acet-H3) in HFS (normal) and LNCaP (transformed) cells treated with compound 8 at 8, 16, 32, and 64 μM for 24 h. Western blots of GAPDH and total histone H3 (Total-H3) are loading controls.
(§1) Recombinant HDAC1 and HDAC6 are used to evaluate the selective inhibitory potency of each compound. Cell based assays: Normal cells (Human Foreskin Fibroblast cells), LNCaP (human prostate cancer cells), MCF-7 (human breast cancer cells, A549 (human adenocarcinoma of lung cells) and ARP-1 (human multiple myeloma cells) are used in these assays. Cells were cultured for up to 72 hr without and with the potential HDAC6-selective inhibitor. SAHA was used as a control. Cell number and cell viability were determined by enumeration. Proteins were extracted from cells and assayed for accumulation of acetylated tubulin and acetylated histones. All methods are described in Namdar et al., PNAS, 2010, 107:20003-8. In vivo animal studies: Potential HDAC6 inhibitor compounds are further assayed by administration to mice for up to 5 days with daily injections. Animals are sacrificed and tissues are analyzed for accumulation of acetylated tubulin and acetylated histones.

HDAC6 = target: T1, HDAC6 (Homo sapiens, UniProt Q9UBN7); assay: Inhibition of recombinant HDAC6; conditions: for Ratio: HDAC1/HDAC6: ratio of IC50 HDAC1 to IC50 HDAC6
T1 sequence (Q9UBN7 1-1215): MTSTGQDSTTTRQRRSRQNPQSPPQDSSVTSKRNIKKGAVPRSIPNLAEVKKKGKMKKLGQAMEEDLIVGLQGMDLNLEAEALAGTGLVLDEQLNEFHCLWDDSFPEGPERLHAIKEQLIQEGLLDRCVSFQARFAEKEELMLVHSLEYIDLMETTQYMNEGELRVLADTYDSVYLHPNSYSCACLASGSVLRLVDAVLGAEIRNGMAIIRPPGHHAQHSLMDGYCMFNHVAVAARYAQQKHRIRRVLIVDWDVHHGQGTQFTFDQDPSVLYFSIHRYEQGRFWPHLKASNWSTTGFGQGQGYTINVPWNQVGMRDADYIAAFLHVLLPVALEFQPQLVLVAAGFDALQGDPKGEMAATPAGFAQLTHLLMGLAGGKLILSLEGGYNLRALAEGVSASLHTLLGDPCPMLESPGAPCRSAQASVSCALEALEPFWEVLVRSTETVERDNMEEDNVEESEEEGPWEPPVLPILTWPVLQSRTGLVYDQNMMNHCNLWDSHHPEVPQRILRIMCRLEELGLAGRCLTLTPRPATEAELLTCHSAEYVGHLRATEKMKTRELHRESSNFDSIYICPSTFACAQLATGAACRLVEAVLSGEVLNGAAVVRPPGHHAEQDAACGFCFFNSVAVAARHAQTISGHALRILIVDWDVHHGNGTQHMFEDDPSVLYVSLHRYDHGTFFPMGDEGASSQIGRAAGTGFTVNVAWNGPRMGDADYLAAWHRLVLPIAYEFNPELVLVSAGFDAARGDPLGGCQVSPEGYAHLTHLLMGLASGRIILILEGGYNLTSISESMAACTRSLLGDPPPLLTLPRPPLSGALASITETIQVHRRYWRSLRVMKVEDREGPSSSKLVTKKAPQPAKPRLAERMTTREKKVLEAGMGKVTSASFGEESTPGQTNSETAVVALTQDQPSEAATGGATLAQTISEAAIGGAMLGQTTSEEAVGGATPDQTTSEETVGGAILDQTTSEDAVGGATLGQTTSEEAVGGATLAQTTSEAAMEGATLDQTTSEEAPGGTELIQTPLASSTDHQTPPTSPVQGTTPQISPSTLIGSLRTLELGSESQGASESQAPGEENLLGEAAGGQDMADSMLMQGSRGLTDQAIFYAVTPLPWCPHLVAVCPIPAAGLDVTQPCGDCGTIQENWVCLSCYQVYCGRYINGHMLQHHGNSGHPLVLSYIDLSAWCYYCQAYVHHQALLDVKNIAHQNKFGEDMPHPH

[2] = system: LNCaP (human prostate adenocarcinoma) cells; assay: Cell growth and viability of LNCaP cells; format: cell-based; conditions: SAHA control
Description: FIG. 3. Cell growth of HFS (normal) and LNCaP (transformed) cells treated with compound 8 over 72 h.
FIG. 4. Cell viability of HFS (normal) and LNCaP (transformed) cells treated with compound 8 over 72 h.
as §1
The effect of compound 8 on the cell growth and viability of normal (HFS, human foreskin fibroblast) and transformed (LNCaP, human prostate adenocarcinoma) cells cultured with 8, 16, 32 or 64 μM HPB for up to 72 h was evaluated.

[3] = system: acetylated alpha-tubulin and acetylated histone H3 in LNCaP (human prostate cancer cells); conditions: SAHA; literature cited, cells not given; cited from earlier work
[4] = system: androgen-dependent CWR22 human prostate cancer xenograft; assay: CWR22 human prostate cancer xenograft in nude mice; format: in vivo; conditions: 21 days; daily 300 mg/kg compound 8 or weekly 3 mg/kg etoposide alone
[5] = system: acetylated alpha-tubulin and histones in CWR22 tumors and spleen; assay: Acetylated lysine patterns in CWR22 tumors and spleen; format: in vivo, nude mice
Source text: Tumors and spleen are removed from the animals, and histones and proteins are extracted for the detection of acetylated lysine patterns.

Chain of HDAC1 (Q13547 whole entry): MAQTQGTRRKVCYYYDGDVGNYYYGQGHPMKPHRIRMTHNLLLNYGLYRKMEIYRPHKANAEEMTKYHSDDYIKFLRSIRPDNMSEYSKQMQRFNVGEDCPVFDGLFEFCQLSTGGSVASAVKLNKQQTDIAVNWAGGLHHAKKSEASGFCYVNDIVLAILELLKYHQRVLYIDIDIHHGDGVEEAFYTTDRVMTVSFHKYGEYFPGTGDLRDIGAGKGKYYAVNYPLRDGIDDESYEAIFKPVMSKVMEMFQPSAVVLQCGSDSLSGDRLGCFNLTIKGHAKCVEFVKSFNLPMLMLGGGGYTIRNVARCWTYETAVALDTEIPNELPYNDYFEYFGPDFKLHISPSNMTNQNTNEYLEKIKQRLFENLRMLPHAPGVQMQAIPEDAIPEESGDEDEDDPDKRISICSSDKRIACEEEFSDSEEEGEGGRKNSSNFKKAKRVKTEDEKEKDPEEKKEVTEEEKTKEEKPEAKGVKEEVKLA

- IC50 (HDAC1): 270 nM
- IC50 (HDAC6): 11 nM
- Ratio: HDAC1/HDAC6 (HDAC6): 24.54
SMILES: O=C(NO)c1ccc(CN(CCO)C(=O)c2ccccc2)cc1 [Compound 11, N-hydroxy-4-((N-(2-hydroxyethyl)-2-benzamido)methyl)benzamide]
- accumulation of acetylated histones (H3) [1]: did not cause accumulation of actylated histones; also recorded: without induction of H3 acetylation
- accumulation of acetylated α-tubulin [1]: caused the accumulation of acetylated α-tubulin; also recorded: significant levels of tubulin acylation were present

SMILES: O=C(CCCCCCC(=O)Nc1ccccc1)NO [SAHA, suberoylanilide hydroxamic acid, reference compound]
- death of LNCaP cells [2]: kills LNCaP cells
- accumulation of acetylated alpha-tubulin [3]: induced the accumulation of acetylated alpha-tubulin and histone H3
- accumulation of acetylated histone H3 [3]: induced the accumulation of acetylated alpha-tubulin and histone H3
- Ratio: HDAC1/HDAC6 (HDAC6): 3.09

- IC50 (HDAC1): 193 nM
SMILES: O=C(CCCCCCC(=O)Nc1ccc([C@H]2O[C@@H](CSc3nc(-c4ccccc4)c(-c4ccccc4)o3)C[C@@H](c3ccc(CO)cc3)O2)cc1)NO [Tubacin, reference compound]

- weight loss, single agent [4]: no weight loss
SMILES: COc1cc([C@@H]2c3cc4c(cc3[C@@H](O[C@@H]3O[C@@H]5CO[C@@H](C)O[C@H]5[C@H](O)[C@H]3O)[C@H]3COC(=O)[C@H]23)OCO4)cc(OC)c1O [etoposide, reference compound]
- growth of established CWR22 tumors, single agent [4]: no significant suppression of the growth
- accumulation of histones in tumors, single agent ([5]; mice injected with compound 8 alone or etoposide): Increased levels of accumulation of histones
- accumulation of acetylated alpha-tubulin in CWR22 tumors and spleen, single agent ([5]; mice treated with compound 8 or etoposide): increased accumulation of acetylated alpha-tubulin
